“And” between values parts separate entries of the source, which are not always exact repeats. Identical values can stand only once.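 How tested: cells in 96-well plates exposed to compound for 48 hours at five concentrations. The concentration for 50% growth inhibition is given as GI50. The concentration for full growth arrest is given as TGI.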
Key:
Assay in all cases: NCI-60 cell line screen, 48 h
[1] = system: BT-549 breast
[2] = system: NCI-H522 lung
[3] = system: HT29 colon
[4] = system: MCF7 breast
[5] = system: SK-MEL-5 melanoma
[6] = system: UO-31 renal
[7] = system: TK-10 renal
[8] = system: M14 melanoma
[9] = system: SW-620 colon
[10] = system: OVCAR-3 ovarian
[11] = system: SF-295 CNS
[12] = system: NCI/ADR-RES ovarian

| SMILES | TGI [1] | TGI [2] | TGI [3] | TGI [4] | TGI [5] | TGI [6] | TGI [7] | TGI [8] | TGI [9] | TGI [10] | TGI [11] | TGI [12] | GI50 [1] | GI50 [5] | GI50 [6] | GI50 [7] | GI50 [8] |
| --- | --- | --- | --- | --- | --- | --- | --- | --- | --- | --- | --- | --- | --- | --- | --- | --- | --- |
| O=[S@]1c2ccc3ccccc3c2N[C@@H]2[C@H]1[C@H]1C=C[C@@H]2C1 | > 100 µM | 55.4 µM | > 100 µM | > 100 µM | > 100 µM | > 100 µM | > 100 µM | > 100 µM | > 100 µM | 37.6 µM | > 100 µM | 99.7 µM |  |  |  |  |  |
| CCC(C)[C@@H](Nc1c(O)c2c(c(O)c1Cl)C(=O)C=CC2=O)C(=O)OC (some centres undefined) | > 10 µM | 4.92 µM | > 10 µM | > 10 µM | 4.51 µM |  | > 10 µM | 9.41 µM | > 10 µM | 9.1 µM | > 10 µM | > 10 µM |  |  |  |  |  |
| COc1ccc(OC)c2c1C=CC(Br)=CC2 | 0.835 µM | 0.579 µM | 0.284 µM | > 1 µM | > 1 µM | > 1 µM | > 1 µM | 0.822 µM | > 1 µM | > 1 µM | 0.373 µM | > 1 µM |  |  |  |  |  |
| COC(=O)c1cc(NC(=O)Cc2c[nH]c3ccccc23)cn1C | > 100 µM | > 100 µM | > 100 µM | > 100 µM | > 100 µM | > 100 µM | > 100 µM | > 100 µM | > 100 µM | > 100 µM | > 100 µM | > 100 µM |  |  |  |  |  |
| CCOC(=O)/C=C(/C(=O)OCC)n1ccc(=O)n(Cc2cnnn2COCCOC(C)=O)c1=O | 38.2 µM | 4.65 µM | 32 µM | 27.7 µM | 38.2 µM | 29.6 µM | 22.2 µM | 38.8 µM | 14.2 µM | 31 µM | > 100 µM | 61.9 µM |  |  |  |  |  |
| CCN(CC)CCN(C)c1ccc(CO)c2c1C(=O)c1ccccc1S2=O (centres undefined) | 26.7 µM | 4.23 µM | 2.95 µM | > 34.5 µM | 6.52 µM | 42.1 µM | 32.3 µM | 4.11 µM | 3.63 µM | 4.11 µM | 28 µM | 3.48 µM |  |  |  |  |  |
| O=C1CCc2ccc(O)c(c2)Oc2ccc(cc2)C(Sc2ccccc2)CCO1 (centres undefined) | 28.7 µM | 27.7 µM | 30.1 µM | 43.8 µM | 24.8 µM | 33.4 µM | 31.6 µM | 32.1 µM | 34.9 µM | 29.6 µM | 38.2 µM | 31.4 µM |  |  |  |  |  |
| COC(=O)/C=C1/OC(c2ccccc2)=C(C)C1=O | 8.45 µM | 57.5 µM | 4.79 µM | 16.6 µM | 34.2 µM | 26.7 µM | 29.1 µM | 24.4 µM | 5.58 µM | 41.9 µM | 26.1 µM | 65.5 µM |  |  |  |  |  |
| CCCSc1ccc2[nH]c(N3C(=O)/C(=C/c4ccc(SC)cc4)N=C3c3ccccc3)cc2c1 | > 50 µM | > 50 µM | > 50 µM | > 50 µM | > 36.3 µM | > 50 µM | > 50 µM | > 50 µM | > 50 µM | > 50 µM | > 50 µM | > 50 µM |  |  |  |  |  |
| CC1=C(O)c2ccccc2C(=O)C1=O | 99.3 µM | > 100 µM | > 100 µM | > 100 µM | > 65.1 µM | > 65.3 µM | > 100 µM | > 100 µM | > 100 µM | > 100 µM | > 100 µM | > 100 µM |  |  |  |  |  |
| COc1ccc(N=NC(=O)NC(CC(C)C)C(=O)NCC(=O)O)cc1 (centres undefined) | > 100 µM | > 100 µM | > 100 µM | > 100 µM | > 56.2 µM | 10.7 µM | > 100 µM | > 100 µM | > 100 µM | > 100 µM | > 100 µM | > 100 µM |  |  |  |  |  |
| CCOC(=O)c1nc2ccc(C(F)(F)F)cc2nc1NCc1ccc(OC)c(OC)c1 | > 100 µM | > 100 µM | > 100 µM | > 100 µM | > 100 µM | > 100 µM | > 100 µM | > 100 µM | > 100 µM | > 100 µM | > 100 µM | > 100 µM |  |  |  |  |  |
| CCOC(=O)/C(=N/Nc1ccccc1)N1C(=S)C=C(C)NN(C)C1=S | > 100 µM | > 100 µM | > 100 µM | > 100 µM | > 100 µM | > 100 µM | > 100 µM | > 100 µM | > 100 µM | > 100 µM | 84.9 µM | > 100 µM |  |  |  |  |  |
| COc1ccc(COC(=O)NCC(=O)NC(C)C(=O)NC(Cc2ccccc2)C(=O)OCc2ccccc2)cc1 (centres undefined) | 48.1 µM and > 100 µM | 29.3 µM and 31.1 µM | 86.4 µM and 33.1 µM | 30.7 µM and 34.9 µM | 26.8 µM and > 100 µM | 44.9 µM and > 100 µM | > 100 µM | 31.8 µM and > 100 µM | > 100 µM | 64.2 µM and 50.7 µM | 47.8 µM and 39.1 µM | > 100 µM | 22.1 µM and > 100 µM | 13.8 µM and 56.3 µM | 23.2 µM and 69.6 µM | 39.5 µM and > 100 µM | 18 µM and 37.5 µM |
| Clc1ccc(CCN[C@H]2CCCC[C@H]2N2CCCC2)cc1Cl | 59.9 µM | 32.9 µM | 49.9 µM | 35.7 µM | 28.5 µM | 31.2 µM | 22.9 µM | 30.3 µM | > 100 µM | 65.2 µM | 30.2 µM | > 100 µM |  |  |  |  |  |
| CCCc1cc(COC)c(C#N)c(=O)[nH]1 | > 100 µM | > 100 µM | > 100 µM | > 100 µM | > 100 µM | > 100 µM | > 100 µM | > 100 µM | > 100 µM | > 100 µM | > 100 µM | > 100 µM |  |  |  |  |  |
| CC(C)CC(N)C(=O)Nc1ccc2ccccc2c1 (centres undefined) | > 100 µM | > 100 µM | > 100 µM | > 100 µM | > 100 µM | > 100 µM | > 100 µM | > 100 µM | > 100 µM | > 100 µM | > 100 µM | > 100 µM |  |  |  |  |  |
| C=CCOC(=O)C1=C(C)NC2=N[C@H](CCCCCCCCC)C[C@@H]3CCC1N23 (some centres undefined) | 37.6 µM | 34.7 µM | 72.2 µM | 36.5 µM | 34.4 µM | 32.5 µM | 39.4 µM | 37.6 µM | > 100 µM | 37.5 µM | > 100 µM | 56 µM |  |  |  |  |  |
| COc1ccc2c(c1)/C(=C\c1c(Cl)[nH]c3ccccc13)C(=O)N2 | 14.8 µM | 11.5 µM | 5.2 µM | 13.7 µM | 14.8 µM | 20.2 µM | 23 µM | 16.2 µM | 13.4 µM | 23 µM | 6.26 µM | 8.03 µM |  |  |  |  |  |
| CC(C)=CCC[C@@H](C)C1=C(O)C(Nc2ccccc2Cl)=C(C)C(=O)C1=O | > 75 µM | 22.7 µM | 26.3 µM | > 75 µM | 42.9 µM | > 49.5 µM | > 75 µM | > 59.9 µM | > 75 µM | > 75 µM | 34.2 µM | 11.9 µM |  |  |  |  |  |
| Cc1c(N=C/C=C/c2ccccc2)c(=O)n(-c2ccccc2)n1C | 58.1 µM | > 100 µM | > 100 µM | 60.5 µM | 31 µM | > 100 µM | > 100 µM | 38.9 µM | 58.4 µM | 67.9 µM | 40.6 µM | 79.6 µM |  |  |  |  |  |
| CCCCc1ccc(Nc2nc(OC)c3ncn(C4CC(O)C(CO)O4)c3n2)cc1 (centres undefined) | 38.1 µM | 3.83 µM | 37.1 µM | 29.4 µM | 33.8 µM | 35.7 µM | 50.1 µM | 85.6 µM | 39.8 µM | 54.3 µM | 36.5 µM | 65.6 µM |  |  |  |  |  |
| O=C1Nc2nccnc2C(=O)N2CCC[C@@H]12 | > 100 µM | > 100 µM | > 100 µM | > 100 µM | > 100 µM | > 100 µM | > 100 µM | > 100 µM | > 100 µM | > 100 µM | > 100 µM | > 100 µM |  |  |  |  |  |
| COC(C)(C)/C=C/c1[nH]c2ccccc2c1CC(=O)NCCc1cn(C(c2ccccc2)(c2ccccc2)c2ccccc2)cn1 | > 75.7 µM | 14.3 µM | > 21.5 µM | 15.5 µM | 7.36 µM | 61.8 µM | > 40.5 µM | 17.3 µM | > 100 µM | > 29.2 µM | > 31.3 µM | > 100 µM |  |  |  |  |  |
| CC(C)C(OC(=O)c1ccc(NCC2=CC(=O)C=CC2=O)cc1)C(C)C | 15.1 µM | 2.85 µM | 26.3 µM | 22.5 µM | 24.5 µM | 4.74 µM | 14.4 µM | 19.7 µM | 27.4 µM | 23.4 µM | 29.4 µM | 19.8 µM |  |  |  |  |  |
| Cc1cc2nc3ccccc3n2c2nc(N)ccc12 | > 100 µM | > 100 µM | > 100 µM | > 100 µM | 40.2 µM | > 100 µM | > 100 µM | > 100 µM | > 100 µM | > 100 µM | 71.5 µM | > 100 µM |  |  |  |  |  |
| COC(=O)CCNC(=O)OCc1ccccc1 | > 100 µM | > 100 µM | > 100 µM | > 100 µM | > 100 µM | > 100 µM | > 100 µM | > 100 µM | > 100 µM | > 100 µM | > 100 µM | > 100 µM |  |  |  |  |  |
| OC(CN(CCCl)CCCl)C(O)C(O)C(O)CN(CCCl)CCCl (centres undefined) | > 100 µM | > 100 µM | > 100 µM | > 100 µM | > 100 µM | > 100 µM | > 100 µM | > 100 µM | > 100 µM | > 100 µM |  | > 100 µM |  |  |  |  |  |

Source: PubChem BioAssay (NCI)
